Experimental data taken from patent US9364479B2, “Use of a receptor-type kinase modulator for treating polycystic kidney disease” (SYMPHONY EVOLUTION, INC., priority 2010, dated 2016).
Marks after values point to notes of the source that are not given here.

What was measured:
Dopamine Transporter = target: T1, Dopamine Transporter (Homo sapiens, UniProt Q01959); experiment: NovaScreen assay; assay type: binding
T1 construct: NovaScreen

[1] = system: Glutamate, NMDA Agonist Site; experiment: NovaScreen assay; assay type: binding
Opiate, Non-selective = experiment: NovaScreen assay; assay type: binding
Leukotriene B4, LTB4 = target: T2, Leukotriene B4, LTB4 (Homo sapiens, UniProt Q15722); experiment: NovaScreen assay; assay type: binding; settings: read-out: Inhibition, 10 μM XL-647
T2 construct: NovaScreen

[2] = target: T3, Angiotensin II, AT1 (Human) (Homo sapiens, UniProt P30556); experiment: NovaScreen assay; assay type: binding; settings: read-out: Inhibition, 10 μM XL-647
T3 construct: NovaScreen

Angiotensin II, AT2 = target: T4, Angiotensin II, AT2 (Homo sapiens, UniProt P50052); experiment: NovaScreen assay; assay type: binding; settings: read-out: Inhibition, 10 μM XL-647
T4 construct: NovaScreen

[3] = system: Calu-6 human tumor xenograft; experiment: Calu-6 xenograft, tumor growth; assay type: in vivo; settings: Mus musculus, qd × 28
Experimental: (§1) The response of tumors to treatment was determined by comparing the mean tumor weight of the treatment group with the appropriate control group. Percentage inhibition of tumor growth was determined with the following formula: Percentage inhibition=100×[1−(Xf−Xo)/(Yf−Yo)], where Xf and Yf are the mean tumor weights of the treatment and control groups, respectively, on day f, and Xo and Yo are the mean tumor weights of treatment and control groups respectively, on day zero (staged tumor weights after grouping)

[4] = system: PC-3 human tumor xenograft; experiment: PC-3 xenograft, tumor growth; assay type: in vivo; settings: Mus musculus; qd × 28
Experimental: as §1

[5] = system: H1975 human tumor xenograft; experiment: H1975 xenograft, tumor growth; assay type: in vivo; settings: Mus musculus, NCI-H1975; qd × 14
Experimental: Before treatment, H1975, A431, or MDA-MB-231 cells were harvested from exponentially growing cultures, detached by brief trypsinization, washed twice in cold HBSS, resuspended in ice-cold HBSS, and implanted either s.c. (H1975, 3×10^6 cells per mouse) or i.d. (A431, 1×10^6 cells per mouse) into the dorsal hind flank or s.c. into the mammary fat pad (MDA-MB-231, 1×10^6 cells per mouse). Palpable tumors were measured by caliper twice weekly until the mean tumor weight was in the range of ˜80 to 120 mg. Tumor weight was determined by measuring perpendicular diameters with a caliper and multiplying the measurements of diameters in two dimensions: tumor volume (mm^3)/2=length (mm)×width (mm^2)/2. […] The mean tumor weight of each animal in the respective control and treatment groups was determined twice weekly during the dosing periods. […]
as §1

[6] = system: Phospho ERK Thr203/Tyr204; experiment: Immunohistochemical analysis of phosphorylation in H1975 xenografts; assay type: in vivo, mouse; settings: 14-day dosing
Experimental: For immunohistochemical analysis of H1975, MDA-MB-231 and other xenografts, tumors were excised after euthanasia and fixed in zinc fixative (BD Biosciences) for 48 h before being processed into paraffin blocks. Serial sections at 5 μm were obtained from the area of largest possible surface for each tumor and stained using standard methods. The following antibodies were used: Ki67 (SP6; Labvision), CD31 (MECA.32; BD Biosciences), pERK^Thr202/Tyr204 (phospho-p44/42 mitogen-activated protein kinase; Cell Signaling Technology), pAKT^Ser473 (Cell Signaling Technology), and pEGFR^Tyr1068 (Cell Signaling Technology). For immunofluorescent staining, sections were then incubated with Alexa 594-conjugated goat anti-rabbit secondary antibody (Invitrogen) and mounted in Fluorescent Mounting Medium (DAKO) containing 4′,6-diamidino-2-phenylindole (Molecular Probes) as a nuclear counterstain. Fluorescent staining was visualized using a Zeiss Axiolmager and digitally captured using a Zeiss high-resolution camera coupled to AxioVision image analysis software. Two to three nonoverlapping representative fields were captured at ×200 or ×400 magnification depending on histologic readout and quantified using the integrated morphometric analysis functions in Metamorph software (Universal Imaging Corp.). Apoptotic cells were detected using terminal deoxynucleotidyl transferase-mediated dUTP nick end labeling in situ cell death detection kit according to the manufacturer's instructions (Roche Diagnostics GmbH).
CD31-positive tumor vessels, Ki67-positive proliferating cells, and pERK staining in each tumor section were identified and quantified using the integrated morphometric analysis functions in the ACIS automatic cellular imaging system (Clarient, Inc.) and reviewed by a blinded observer. Number of CD31-positive vessels were identified across 5 to 10 randomly chosen fields of equal size at ×100 magnification in viable tumor tissue and calculated as number of vessels per square millimeter for each tumor, averaged for each treatment group, and compared with vehicle-treated controls. Percentage Ki67-positive cells were calculated as the ratio between Ki67-positive cells divided by the total number of cells identified across 5 to 10 randomly chosen fields of equal size in viable tumor tissue. The results for each tumor and treatment group were averaged and compared with vehicle-treated controls. The level of pERK staining was determined as described above and calculated as the ratio of antibody staining divided by the total number of cells identified, averaged for each treatment group, and compared with vehicle-treated controls.
Results are presented as mean±SD or SE as indicated for each graph or table. For IC50 comparison in the A431 cell viability experiment, two sample Student's t tests were applied to determine P values for each IC50 pair assuming that the random fluctuations of replicates around the dose-response curve are distributed [log]normally with the individual replicates used as the ‘sample size’ for the t test (nine point dose response done in triplicate). For statistical analysis of immunohistochemical results from in vivo studies, two-tailed Student's t test analysis and Bonferroni correction were done to identify significant differences compared with vehicle control group (multiple use of a single vehicle control group) with a cumulative minimal requirement of P<0.05.

CYP3A4 = CYP3A4 (Homo sapiens, UniProt P08684); settings: microsomes
KDR = KDR (Homo sapiens, UniProt P35968); experiment: Mechanism of action study / Ki determination; assay type: biochemical; set-up: residues D807-V1356 of human KDR, Proqinase; purchased Proqinase
Experimental: Enzymatic activity was measured by standard methods after dilution of the enzyme-inhibitor complex.

Sequence of KDR (P35968 807-1356): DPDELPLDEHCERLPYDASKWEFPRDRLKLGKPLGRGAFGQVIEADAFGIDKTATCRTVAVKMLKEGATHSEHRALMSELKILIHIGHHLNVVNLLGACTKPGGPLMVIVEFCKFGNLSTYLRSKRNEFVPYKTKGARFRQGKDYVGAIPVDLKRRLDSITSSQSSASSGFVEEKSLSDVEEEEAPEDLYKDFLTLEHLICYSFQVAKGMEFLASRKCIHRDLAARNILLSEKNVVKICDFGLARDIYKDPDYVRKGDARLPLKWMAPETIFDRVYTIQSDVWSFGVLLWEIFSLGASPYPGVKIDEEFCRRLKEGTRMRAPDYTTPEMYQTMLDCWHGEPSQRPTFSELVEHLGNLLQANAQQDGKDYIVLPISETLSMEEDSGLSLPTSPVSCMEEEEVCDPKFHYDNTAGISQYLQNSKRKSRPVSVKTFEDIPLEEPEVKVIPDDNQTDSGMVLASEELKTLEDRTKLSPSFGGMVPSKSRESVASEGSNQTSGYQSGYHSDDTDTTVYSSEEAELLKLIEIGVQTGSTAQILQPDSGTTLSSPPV
T1 sequence (Q01959 whole entry): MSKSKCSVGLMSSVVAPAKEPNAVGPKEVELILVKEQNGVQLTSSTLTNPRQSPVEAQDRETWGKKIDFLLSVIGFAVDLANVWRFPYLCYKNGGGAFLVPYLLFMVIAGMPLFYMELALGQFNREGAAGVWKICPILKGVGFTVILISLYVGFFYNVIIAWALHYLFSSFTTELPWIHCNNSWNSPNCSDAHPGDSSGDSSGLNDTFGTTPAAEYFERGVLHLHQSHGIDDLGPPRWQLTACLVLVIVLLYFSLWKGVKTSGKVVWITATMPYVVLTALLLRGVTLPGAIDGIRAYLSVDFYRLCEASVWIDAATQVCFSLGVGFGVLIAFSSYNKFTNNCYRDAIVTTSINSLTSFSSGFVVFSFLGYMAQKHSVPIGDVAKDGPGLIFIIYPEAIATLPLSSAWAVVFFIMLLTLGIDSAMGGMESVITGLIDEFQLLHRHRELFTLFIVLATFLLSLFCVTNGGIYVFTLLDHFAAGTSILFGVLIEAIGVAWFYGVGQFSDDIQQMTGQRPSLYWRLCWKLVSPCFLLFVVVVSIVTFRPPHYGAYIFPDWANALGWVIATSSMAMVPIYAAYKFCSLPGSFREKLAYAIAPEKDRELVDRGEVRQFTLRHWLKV
T4 sequence (P50052 whole entry): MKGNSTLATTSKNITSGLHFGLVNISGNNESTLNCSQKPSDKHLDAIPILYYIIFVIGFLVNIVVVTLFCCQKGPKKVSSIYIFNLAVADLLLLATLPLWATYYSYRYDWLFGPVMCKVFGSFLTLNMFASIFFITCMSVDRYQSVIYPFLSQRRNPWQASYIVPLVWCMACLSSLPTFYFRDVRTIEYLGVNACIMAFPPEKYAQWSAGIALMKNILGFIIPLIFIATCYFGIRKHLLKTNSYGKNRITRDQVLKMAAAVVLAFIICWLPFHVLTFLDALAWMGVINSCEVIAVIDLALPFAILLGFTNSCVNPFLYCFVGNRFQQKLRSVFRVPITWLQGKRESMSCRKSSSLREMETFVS
T3 sequence (P30556 whole entry): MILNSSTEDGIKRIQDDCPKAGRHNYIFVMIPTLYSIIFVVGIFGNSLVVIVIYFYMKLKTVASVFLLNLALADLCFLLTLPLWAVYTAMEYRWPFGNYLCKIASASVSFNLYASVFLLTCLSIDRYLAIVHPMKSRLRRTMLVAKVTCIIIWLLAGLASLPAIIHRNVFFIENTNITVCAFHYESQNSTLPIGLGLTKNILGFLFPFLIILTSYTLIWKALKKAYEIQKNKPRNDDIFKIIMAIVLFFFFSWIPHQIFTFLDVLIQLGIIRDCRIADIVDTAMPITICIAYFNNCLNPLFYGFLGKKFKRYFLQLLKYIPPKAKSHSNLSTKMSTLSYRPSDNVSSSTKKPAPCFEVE
T2 sequence (Q15722 whole entry): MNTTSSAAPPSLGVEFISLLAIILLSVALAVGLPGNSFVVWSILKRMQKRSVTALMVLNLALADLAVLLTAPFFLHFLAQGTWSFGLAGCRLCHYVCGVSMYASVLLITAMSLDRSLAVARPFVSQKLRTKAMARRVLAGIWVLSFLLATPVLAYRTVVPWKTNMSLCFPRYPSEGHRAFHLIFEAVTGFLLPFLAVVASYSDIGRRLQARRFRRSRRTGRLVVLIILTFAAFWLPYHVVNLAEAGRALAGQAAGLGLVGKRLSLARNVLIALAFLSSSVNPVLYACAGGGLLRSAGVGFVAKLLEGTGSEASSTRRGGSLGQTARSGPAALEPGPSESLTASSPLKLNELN
Sequence of CYP3A4 (P08684 whole entry, the tested form may be a part): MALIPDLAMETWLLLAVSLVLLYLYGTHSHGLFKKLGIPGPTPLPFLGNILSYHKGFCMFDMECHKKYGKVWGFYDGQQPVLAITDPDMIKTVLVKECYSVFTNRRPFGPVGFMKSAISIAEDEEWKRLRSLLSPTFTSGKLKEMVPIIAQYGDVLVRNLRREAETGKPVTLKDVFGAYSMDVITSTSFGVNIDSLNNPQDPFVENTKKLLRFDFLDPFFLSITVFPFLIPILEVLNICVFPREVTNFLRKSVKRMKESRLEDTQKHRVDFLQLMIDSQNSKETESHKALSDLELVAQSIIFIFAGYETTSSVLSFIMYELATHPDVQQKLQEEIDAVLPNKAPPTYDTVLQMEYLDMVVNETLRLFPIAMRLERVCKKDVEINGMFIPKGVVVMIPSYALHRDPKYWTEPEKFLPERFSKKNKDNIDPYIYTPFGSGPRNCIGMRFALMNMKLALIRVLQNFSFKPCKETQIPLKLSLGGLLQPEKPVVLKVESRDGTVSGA

## COc1cc2c(Nc3ccc(Cl)c(Cl)c3F)ncnc2cc1OC[C@@H]1C[C@@H]2CN(C)C[C@@H]2C1 [XL-647, N-(3,4-dichloro-2-fluorophenyl)-7-({[(3aR,5r,6aS)-2-methyloctahydrocyclopenta[c]pyrrol-5-yl]methyl}oxy)-6-(methyloxy)quinazolin-4-amine]
Dopamine Transporter
  IC50: 2480 nM
Dopamine Transporter; read-out: Inhibition, 10 μM XL-647
  inhibition at 10 µM: 87.1%
[1]
  Inhibition, 10 μM XL-647: −1.66%
Opiate, Non-selective
  Inhibition, 10 μM XL-647: 39.73%
Leukotriene B4, LTB4
  inhibition at 10 µM: 32.2%
[2]
  inhibition at 10 µM: 6.85%
Angiotensin II, AT2
  inhibition at 10 µM: 16.6%
[3]
  ED50: 16.4 mg/kg
[4]
  ED50: 34 mg/kg
[5]
  ED50: 17 mg/kg
[6]; 10 mg/kg
  Phospho ERK Thr203/Tyr204 % Cells: 20 ± 4.3%
  Phospho ERK Thr203/Tyr204 % Reduction: 11.8%
[6]; 30 mg/kg
  Phospho ERK Thr203/Tyr204 % Cells: 13 ± 4.9%
  Phospho ERK Thr203/Tyr204 % Reduction: 41.8^a %
[6]; 100 mg/kg
  Phospho ERK Thr203/Tyr204 % Cells: 10 ± 3.7%
  Phospho ERK Thr203/Tyr204 % Reduction: 57.1^a %
CYP3A4
  CYP3A4 substrate, in words: substrate for CYP3A4-mediated metabolism
KDR
  ATP-Competitive: Yes
  Ki: 0.6 nM
  Reversible: Yes
